Results from publication PMC5218480 (PLoS ONE, 2017).

Test system: MV-4-11 cells
Assay: Gene expression microarray analysis (Affymetrix PrimeView) and GSEA
Assay type: cell-based, human
Parameters: RFU PODN (11730768_x_at) / Fold change /veh PODN (11730768_x_at) / RFU LINC00158 (11744669_a_at) / Fold change /veh LINC00158 (11744669_a_at) / RFU DUSP10 (11751237_a_at) / Fold change /veh DUSP10 (11751237_a_at) / RFU ID3 (11757404_x_at) / Fold change /veh ID3 (11757404_x_at) / RFU PLEKHG5 (11737974_s_at) / Fold change /veh PLEKHG5 (11737974_s_at) / RFU LRRC4B (11730491_at) / Fold change /veh LRRC4B (11730491_at) / RFU GIMAP4 (11747438_a_at) / Fold change /veh GIMAP4 (11747438_a_at) / RFU KRT8 (11758183_x_at) / Fold change /veh KRT8 (11758183_x_at) / RFU CNN1 (11734310_a_at) / Fold change /veh CNN1 (11734310_a_at) / RFU VPS37D (11726825_at) / Fold change /veh VPS37D (11726825_at) / RFU C10orf10 (11716522_x_at) / Fold change /veh C10orf10 (11716522_x_at) / RFU KIR2DL2 /// KIR2DL4 /// KIR2DL5A /// KIR2DL5B /// KIR2DS1 /// KIR2DS2 /// KIR2DS3 /// KIR2DS4 /// KIR3DL3 /// KIR3DL3 /// KIR3DS1 (11738374_at) / Fold change /veh KIR2DL2 /// KIR2DL4 /// KIR2DL5A /// KIR2DL5B /// KIR2DS1 /// KIR2DS2 /// KIR2DS3 /// KIR2DS4 /// KIR3DL3 /// KIR3DL3 /// KIR3DS1 (11738374_at) / RFU C1QL1 (11718748_at) / Fold change /veh C1QL1 (11718748_at) / RFU TMPRSS4 (11747572_a_at) / Fold change /veh TMPRSS4 (11747572_a_at) / RFU HAMP (11756126_x_at) / Fold change /veh HAMP (11756126_x_at) / RFU RNFT2 (11725882_a_at) / Fold change /veh RNFT2 (11725882_a_at) / RFU NR4A2 (11747474_a_at) / Fold change /veh NR4A2 (11747474_a_at) / RFU ABCC12 (11746883_a_at) / Fold change /veh ABCC12 (11746883_a_at) / RFU TMEM136 (11760407_x_at) / Fold change /veh TMEM136 (11760407_x_at) / RFU CLDN22 /// WWC2 (11732394_at) / Fold change /veh CLDN22 /// WWC2 (11732394_at) / RFU HLA-DPB1 (11760878_x_at) / Fold change /veh HLA-DPB1 (11760878_x_at) / RFU SPINT1 (11716480_a_at) / Fold change /veh SPINT1 (11716480_a_at) / RFU GAP43 (11754022_s_at) / Fold change /veh GAP43 (11754022_s_at) / RFU A4GNT (11735810_at) / Fold change /veh A4GNT (11735810_at) / RFU PRB3 (11715151_x_at) / Fold change /veh PRB3 (11715151_x_at) / RFU TUBB4B (11761932_at) / Fold change /veh TUBB4B (11761932_at) / RFU CAPN14 (11732068_a_at) / Fold change /veh CAPN14 (11732068_a_at) / RFU TMCC2 (11721928_a_at) / Fold change /veh TMCC2 (11721928_a_at) / RFU IRGQ (11745062_a_at) / Fold change /veh IRGQ (11745062_a_at) / RFU FAM174B (11720279_a_at) / Fold change /veh FAM174B (11720279_a_at) / RFU TMPRSS4 (11748680_a_at) / Fold change /veh TMPRSS4 (11748680_a_at) / RFU FAM212B (11763350_a_at) / Fold change /veh FAM212B (11763350_a_at) / RFU PLEKHG5 (11743358_a_at) / Fold change /veh PLEKHG5 (11743358_a_at) / RFU ZSCAN30 (11745921_a_at) / Fold change /veh ZSCAN30 (11745921_a_at) / RFU CMKLR1 (11741424_a_at) / Fold change /veh CMKLR1 (11741424_a_at) / RFU LOC101060620 /// MAPK8IP1 (11723275_at) / Fold change /veh LOC101060620 /// MAPK8IP1 (11723275_at) / RFU SPTSSB (11747773_x_at) / Fold change /veh SPTSSB (11747773_x_at) / RFU PRSS12 (11739890_at) / Fold change /veh PRSS12 (11739890_at) / RFU BIN1 (11741810_x_at) / Fold change /veh BIN1 (11741810_x_at) / RFU WNT11 (11732464_a_at) / Fold change /veh WNT11 (11732464_a_at) / RFU C10orf10 (11716521_a_at) / Fold change /veh C10orf10 (11716521_a_at) / RFU C5orf56 (11738089_at) / Fold change /veh C5orf56 (11738089_at) / RFU CYB561 (11721691_x_at) / Fold change /veh CYB561 (11721691_x_at) / RFU ANKRD19P (11752326_a_at) / Fold change /veh ANKRD19P (11752326_a_at) / RFU OR2T12 /// OR2T33 /// OR2T8 (11738714_s_at) / Fold change /veh OR2T12 /// OR2T33 /// OR2T8 (11738714_s_at) / RFU VCAN (11748164_a_at) / Fold change /veh VCAN (11748164_a_at) / RFU JSRP1 (11732532_at) / Fold change /veh JSRP1 (11732532_at) / RFU KRTAP10-11 (11738290_x_at) / Fold change /veh KRTAP10-11 (11738290_x_at) / RFU MYO3A (11730013_a_at) / Fold change /veh MYO3A (11730013_a_at) / RFU EBF3 (11725865_a_at) / Fold change /veh EBF3 (11725865_a_at) / RFU CAMK2N1 (11719241_x_at) / Fold change /veh CAMK2N1 (11719241_x_at) / RFU C5orf56 (11738088_a_at) / Fold change /veh C5orf56 (11738088_a_at) / RFU OLFML3 (11715873_a_at) / Fold change /veh OLFML3 (11715873_a_at) / RFU LOC100653217 /// NTM (11731650_a_at) / Fold change /veh LOC100653217 /// NTM (11731650_a_at) / RFU MAPK11 (11762145_a_at) / Fold change /veh MAPK11 (11762145_a_at) / RFU FIZ1 (11724087_x_at) / Fold change /veh FIZ1 (11724087_x_at) / RFU OASL (11726364_x_at) / Fold change /veh OASL (11726364_x_at) / RFU SOX15 (11748057_x_at) / Fold change /veh SOX15 (11748057_x_at) / RFU CD79A (11719716_a_at) / Fold change /veh CD79A (11719716_a_at) / RFU HIST1H1D (11736915_at) / Fold change /veh HIST1H1D (11736915_at) / RFU CASKIN2 (11723855_a_at) / Fold change /veh CASKIN2 (11723855_a_at) / RFU LOC730098 (11760151_x_at) / Fold change /veh LOC730098 (11760151_x_at) / RFU OR4N2 (11742367_at) / Fold change /veh OR4N2 (11742367_at) / RFU PRRT2 (11749266_a_at) / Fold change /veh PRRT2 (11749266_a_at) / RFU SNX32 (11753110_a_at) / Fold change /veh SNX32 (11753110_a_at) / RFU CDHR5 (11726645_a_at) / Fold change /veh CDHR5 (11726645_a_at) / RFU RCAN1 (11760418_a_at) / Fold change /veh RCAN1 (11760418_a_at) / RFU FAM167A (11723789_a_at) / Fold change /veh FAM167A (11723789_a_at) / RFU FAM26E (11764081_at) / Fold change /veh FAM26E (11764081_at) / RFU ISYNA1 (11749810_s_at) / Fold change /veh ISYNA1 (11749810_s_at) / RFU ACY1 (11761880_at) / Fold change /veh ACY1 (11761880_at) / RFU 11764098_at / Fold change /veh 11764098_at / RFU SAMD14 (11745864_x_at) / Fold change /veh SAMD14 (11745864_x_at) / RFU NPB (11741838_a_at) / Fold change /veh NPB (11741838_a_at) / RFU TMPRSS6 (11731388_a_at) / Fold change /veh TMPRSS6 (11731388_a_at) / RFU KRTAP10-2 (11738614_at) / Fold change /veh KRTAP10-2 (11738614_at) / RFU ARHGAP8 /// PRR5-ARHGAP8 (11727945_x_at) / Fold change /veh ARHGAP8 /// PRR5-ARHGAP8 (11727945_x_at) / RFU KRTAP5-7 /// NADSYN1 (11734609_at) / Fold change /veh KRTAP5-7 /// NADSYN1 (11734609_at) / RFU RASL12 (11751679_a_at) / Fold change /veh RASL12 (11751679_a_at) / RFU CDKN2B (11736163_a_at) / Fold change /veh CDKN2B (11736163_a_at) / RFU PRF1 (11729649_at) / Fold change /veh PRF1 (11729649_at) / RFU, ZNF638 /// ZNF638-IT1 / Fold change vs veh, ZNF638 /// ZNF638-IT1 / RFU, PANK3 / Fold change vs veh, PANK3 / RFU, SH3YL1 / Fold change vs veh, SH3YL1 / RFU, ZEB2 / Fold change vs veh, ZEB2 / RFU, NRIP1 / Fold change vs veh, NRIP1 / RFU, PTTG1IP / Fold change vs veh, PTTG1IP / RFU, CAPN2 / Fold change vs veh, CAPN2 / RFU, MED14 / Fold change vs veh, MED14 / RFU, SNORA58 / Fold change vs veh, SNORA58 / RFU, C1orf63 / Fold change vs veh, C1orf63 / RFU, LRRFIP1 / Fold change vs veh, LRRFIP1 / RFU, NDUFAF7 / Fold change vs veh, NDUFAF7 / RFU, SLC12A2 / Fold change vs veh, SLC12A2 / RFU, IBTK / Fold change vs veh, IBTK / RFU, ESF1 / Fold change vs veh, ESF1 / Fold change vs veh, TMEM50B / RFU, TAOK1 / Fold change vs veh, TAOK1 / RFU, ACBD3 / Fold change vs veh, ACBD3 / RFU, TMA16 / Fold change vs veh, TMA16 / RFU, RWDD3 / Fold change vs veh, RWDD3 / RFU, BCAT1 / Fold change vs veh, BCAT1 / RFU, EDEM3 / Fold change vs veh, EDEM3 / RFU, TMEM33 / Fold change vs veh, TMEM33 / RFU, WDR75 / Fold change vs veh, WDR75 / RFU, AHCTF1 / Fold change vs veh, AHCTF1 / RFU, TFRC / Fold change vs veh, TFRC / RFU, ZDHHC17 / Fold change vs veh, ZDHHC17 / RFU, NOM1 / Fold change vs veh, NOM1 / RFU, ARL8B / Fold change vs veh, ARL8B / RFU, ZBTB11 / Fold change vs veh, ZBTB11 / RFU, TAMM41 / Fold change vs veh, TAMM41 / RFU, KIAA1704 /// LOC100996395 / Fold change vs veh, KIAA1704 /// LOC100996395 / RFU, ING1 / Fold change vs veh, ING1 / RFU, TRMT61B / Fold change vs veh, TRMT61B / RFU, FUBP3 / Fold change vs veh, FUBP3 / RFU, TP53 / Fold change vs veh, TP53 / RFU, TNKS2 / Fold change vs veh, TNKS2 / RFU, ZFP14 / Fold change vs veh, ZFP14 / RFU, ACTR2 / Fold change vs veh, ACTR2 / RFU, PPP3R1 / Fold change vs veh, PPP3R1 / RFU, PIK3R1 / Fold change vs veh, PIK3R1 / RFU, HNRNPA1 / Fold change vs veh, HNRNPA1 / RFU, RNF170 / Fold change vs veh, RNF170 / RFU, ZNF28 / Fold change vs veh, ZNF28 / RFU, RNGTT / Fold change vs veh, RNGTT / RFU, OGT / Fold change vs veh, OGT / RFU, BRD1 / Fold change vs veh, BRD1 / RFU, MARS / Fold change vs veh, MARS / RFU, ZNF655 / Fold change vs veh, ZNF655 / RFU, FAHD1 / Fold change vs veh, FAHD1 / RFU, BDP1 / Fold change vs veh, BDP1 / RFU, LRRCC1 / Fold change vs veh, LRRCC1 / RFU, ARID1A / Fold change vs veh, ARID1A / RFU, ZNF146 / Fold change vs veh, ZNF146 / RFU, ZNF330 / Fold change vs veh, ZNF330 / RFU, GPN3 / Fold change vs veh, GPN3 / RFU, C9orf123 / Fold change vs veh, C9orf123 / RFU, N4BP2L2 / Fold change vs veh, N4BP2L2 / RFU, ARFIP1 / Fold change vs veh, ARFIP1 / RFU, FAM179B / Fold change vs veh, FAM179B / RFU, BCL10 / Fold change vs veh, BCL10 / RFU, UHRF1BP1L / Fold change vs veh, UHRF1BP1L / RFU, BET1 / Fold change vs veh, BET1 / RFU, CNOT2 / Fold change vs veh, CNOT2 / RFU, ZNF268 / Fold change vs veh, ZNF268 / Fold change vs veh, ZNF507 / RFU, DGCR2 / Fold change vs veh, DGCR2 / RFU, WDSUB1 / Fold change vs veh, WDSUB1 / Fold change vs veh, HSP90B1 /// MIR3652 / RFU, ADSS / Fold change vs veh, ADSS / RFU, GK / Fold change vs veh, GK / RFU, ZNF148 / Fold change vs veh, ZNF148 / RFU, TAF9 / Fold change vs veh, TAF9 / RFU, SLC1A5 / Fold change vs veh, SLC1A5 / RFU, SLMO2 / Fold change vs veh, SLMO2 / RFU, ABCC4 / Fold change vs veh, ABCC4 / RFU, LOC101060439 /// RAP1B / Fold change vs veh, LOC101060439 /// RAP1B / RFU, RFX7 / Fold change vs veh, RFX7 / RFU, GTPBP10 / Fold change vs veh, GTPBP10 / RFU, CNEP1R1 / Fold change vs veh, CNEP1R1 / RFU, BIVM-ERCC5 /// ERCC5 / Fold change vs veh, BIVM-ERCC5 /// ERCC5 / RFU, ILF3 / Fold change vs veh, ILF3 / RFU 11762660_at / Fold change /veh 11762660_at / RFU VCAN (11757783_s_at) / Fold change /veh VCAN (11757783_s_at) / RFU DDX43 (11728927_at) / Fold change /veh DDX43 (11728927_at) / RFU KRT8 (11758188_x_at) / Fold change /veh KRT8 (11758188_x_at) / RFU NKD1 (11759106_at) / Fold change /veh NKD1 (11759106_at) / RFU SRD5A1 (11742802_a_at) / Fold change /veh SRD5A1 (11742802_a_at) / RFU TPSAB1 /// TPSB2 (11721975_s_at) / Fold change /veh TPSAB1 /// TPSB2 (11721975_s_at) / RFU GSTM3 (11746129_a_at) / Fold change /veh GSTM3 (11746129_a_at) / RFU IL23R (11737362_x_at) / Fold change /veh IL23R (11737362_x_at) / RFU TMEM51 (11727254_a_at) / Fold change /veh TMEM51 (11727254_a_at) / RFU PIWIL2 (11732686_x_at) / Fold change /veh PIWIL2 (11732686_x_at) / RFU ORM1 (11744905_x_at) / Fold change /veh ORM1 (11744905_x_at) / RFU CCDC152 (11743942_at) / Fold change /veh CCDC152 (11743942_at) / RFU ECM1 (11717891_a_at) / Fold change /veh ECM1 (11717891_a_at) / RFU IL23R (11748794_a_at) / Fold change /veh IL23R (11748794_a_at) / RFU TNFAIP8L3 (11732012_x_at) / Fold change /veh TNFAIP8L3 (11732012_x_at) / RFU MBOAT4 (11741988_at) / Fold change /veh MBOAT4 (11741988_at) / RFU 11764193_at / Fold change /veh 11764193_at / RFU TMEM53 (11763286_at) / Fold change /veh TMEM53 (11763286_at) / RFU MAGEB2 (11727129_at) / Fold change /veh MAGEB2 (11727129_at) / RFU TMEM200A (11744735_a_at) / Fold change /veh TMEM200A (11744735_a_at) / RFU CCDC152 (11751479_a_at) / Fold change /veh CCDC152 (11751479_a_at) / RFU FAM211A (11726209_a_at) / Fold change /veh FAM211A (11726209_a_at) / RFU RGS16 (11746705_a_at) / Fold change /veh RGS16 (11746705_a_at) / RFU VCAN (11755009_s_at) / Fold change /veh VCAN (11755009_s_at) / RFU RHOB (11743442_s_at) / Fold change /veh RHOB (11743442_s_at) / RFU RGS16 (11720943_a_at) / Fold change /veh RGS16 (11720943_a_at) / RFU RGS16 (11720944_at) / Fold change /veh RGS16 (11720944_at) / RFU, VPS4B / Fold change vs veh, VPS4B / RFU, CREB1 / Fold change vs veh, CREB1 / RFU, DNAJC13 / Fold change vs veh, DNAJC13 / RFU, GNAQ / Fold change vs veh, GNAQ / RFU, CDK5R1 / Fold change vs veh, CDK5R1 / RFU, ZRANB3 / Fold change vs veh, ZRANB3 / RFU, CUL4A / Fold change vs veh, CUL4A / RFU, CCNY / Fold change vs veh, CCNY / RFU, UFL1 / Fold change vs veh, UFL1 / RFU, COG3 / Fold change vs veh, COG3 / RFU, DIAPH2 / Fold change vs veh, DIAPH2 / RFU, SKA2 / Fold change vs veh, SKA2 / RFU, AFF3 / Fold change vs veh, AFF3 / RFU, LMF1 / Fold change vs veh, LMF1 / RFU, IPO11 / Fold change vs veh, IPO11 / RFU, DFFB / Fold change vs veh, DFFB / RFU, FOXP1 / Fold change vs veh, FOXP1 / RFU, CARD8 / Fold change vs veh, CARD8 / RFU, STRN3 / Fold change vs veh, STRN3 / RFU, ADK / Fold change vs veh, ADK / RFU, RASSF2 / Fold change vs veh, RASSF2 / RFU, WIPF1 / Fold change vs veh, WIPF1 / RFU, LARP1B / Fold change vs veh, LARP1B / RFU, RASA1 / Fold change vs veh, RASA1 / RFU, RB1 / Fold change vs veh, RB1 / RFU, PPFIA1 / Fold change vs veh, PPFIA1 / RFU, MAT2A / Fold change vs veh, MAT2A / RFU, CCT5 / Fold change vs veh, CCT5 / RFU, WDR92 / Fold change vs veh, WDR92 / RFU, CUX1 / Fold change vs veh, CUX1 / RFU, TTC7A / Fold change vs veh, TTC7A / RFU, TMEM135 / Fold change vs veh, TMEM135 / RFU, DEPTOR / Fold change vs veh, DEPTOR / RFU, CPM / Fold change vs veh, CPM / RFU, DNAJB6 / Fold change vs veh, DNAJB6 / RFU, CACNA2D3 / Fold change vs veh, CACNA2D3 / RFU, DTX4 / Fold change vs veh, DTX4 / RFU, TFCP2 / Fold change vs veh, TFCP2 / RFU, GMCL1 /// GMCL1P1 / Fold change vs veh, GMCL1 /// GMCL1P1 / RFU, AEBP2 / Fold change vs veh, AEBP2 / RFU, SNHG1 /// SNORD22 /// SNORD25 /// SNORD26 /// SNORD27 /// SNORD28 /// SNORD29 /// SNORD31 / Fold change vs veh, SNHG1 /// SNORD22 /// SNORD25 /// SNORD26 /// SNORD27 /// SNORD28 /// SNORD29 /// SNORD31 / Fold change (Aza/veh), C12orf56 (ProbeSet 11735607_a_at) / Fold change (ACY-1035/veh), C12orf56 (ProbeSet 11735607_a_at) / Fold change (Aza/veh), FGFR1OP (ProbeSet 11751329_s_at) / Fold change (ACY-1035/veh), FGFR1OP (ProbeSet 11751329_s_at) / Fold change (Aza/veh), VPS36 (ProbeSet 11739960_a_at) / Fold change (ACY-1035/veh), VPS36 (ProbeSet 11739960_a_at) / RFU SYPL1 (11715823_x_at) / Fold change /veh SYPL1 (11715823_x_at) / RFU IGFBP7 (11715501_s_at) / Fold change /veh IGFBP7 (11715501_s_at) / RFU REEP3 (11722064_at) / Fold change /veh REEP3 (11722064_at) / RFU IGLL1 (11728026_x_at) / Fold change /veh IGLL1 (11728026_x_at): dose or concentration left out as unconfirmed
Settings: ProbeSet 11757113_a_at; LIST D

Nc1ccc(-c2cccs2)cc1NC(=O)c1ccc2c(c1)cc(C1CC1)n2CCN1CCOCC1 [ACY-1035]
RFU, SNHG1 /// SNORD22 /// SNORD25 /// SNORD26 /// SNORD27 /// SNORD28 /// SNORD29 /// SNORD31: 319.01 RFU
